Reference: paper PMC11365140 (Cell & Bioscience, 2024)
“Also recorded” adds a separate entry of the source. Bridge positions count the residues as written; N and C are the ends. Ends that are not written are not given here.

How the values were obtained:
[1] = test system: co-culture of INS-1E and αTC1-9 cells; assay: Glucagon secretion from co-cultured INS-1E and αTC1-9 cells; assay type: cell-based, rat (INS-1E) and mouse (αTC1-9); settings: 100 nM, 1 h, 16.8 mM glucose, both 2.5 × 10^4 cells/well (Fig. 3G)
Protocol: (§1) Cell culture and hormone secretion
(§2) The INS-1E cells were cultured in RPMI 1640 supplemented with 10% FBS, the αTC1-9 cells were cultured in low glucose DMEM supplemented with 10% FBS and the MIN6 cells were cultured in high glucose DMEM supplemented with 10% FBS. Cells were grown in 96-well plates at a density of 5 × 10^4 cells (INS-1E and αTC1-9) or 2 × 10^4 cells (MIN6) per well. After preincubation for 30 min at 37 °C in KRBB, the cells were incubated with either 0.1% DMSO or compounds for 1 h at 37 °C in KRBB containing either 16.8 mM or 2.8 mM glucose. […] For co-culturing of INS-1E and αTC1-9 cells, RPMI 1640 supplemented with 10% FBS was used, both cell densities were 2.5 × 10^4 cells per well in 96-well plates.

C57BL/6J mice [2] = assay: Plasma insulin in OGTT; assay type: in vivo, mouse; settings: AVP 1 mg/kg i.p.; blood 15 min after glucose administration; ELISA; 4 mice/group (Fig. 5C)
Protocol: (§3) Oral glucose tolerance test and insulin detection
(§4) For oral glucose tolerance test (OGTT), mice were fasted overnight and then given either 0.1% DMSO in normal saline (vehicle) or 1 mg/kg AVP and 10 mg/kg Exendin (9–39) (n = 8 per treatment group) via intraperitoneal injection. A glucose bolus was delivered (1.5 g/kg orally) 15 min later. Blood was collected from a tail nick at designated time points, and plasma glucose levels were determined with a glucose meter. To detect insulin level, blood was collected from the retro-orbital plexus of mice 15 min after glucose administration (n = 4 per treatment group) and detected with an ELISA kit for mouse insulin (Crystal Chem, #90080).

[3] = test system: co-culture of INS-1E and αTC1-9 cells; assay: Insulin secretion from co-cultured INS-1E and αTC1-9 cells; assay type: cell-based, rat (INS-1E) and mouse (αTC1-9); settings: 1 h
Protocol: as §1, §2
Specific sequences of shRNAs (Table 1) targeting GCGR or GLP-1R mRNA were constructed into pLKO.1 puro lentiviral vector (Addgene, #8453). Lentiviral vectors and packaging vectors were transfected into HEK293T cells by FuGENE HD Transfection Reagent (Promega, #E2312) to produce virus particles. INS-1E cells were seeded onto 6-well plates at a density of 5 × 10^5 cells per well and incubated with viruses and 5 μg/mL polybrene for 48 h. Transfected INS-1E cells were collected for real-time qPCR and co-culture experiments.

[4] = test system: mouse and rat pancreas, and isolated mouse islets; settings: mouse and rat pancreas, and isolated mouse islets; cited from earlier work
Source text: (§5) AVP regulates the hypothalamic-pituitary-adrenal (HPA) axis, stimulating the release of corticotropin-releasing hormone (CRH) through V1bR activation, thereby promoting CRH-induced insulin secretion.

islet β cells = settings: cytokine-induced apoptosis; cited from earlier work
Source text: as §5

INS-1E cells = assay: Insulin secretion from INS-1E cells; assay type: cell-based, rat; settings: 100 nM, 1 h, 37 °C, 16.8 mM glucose, 5 × 10^4 cells/well; HTRF; 3 technical replicates (Fig. 1E)
Protocol: as §1, §2

[5] = test system: pancreas of mouse and rat, and the α cell line InR1G9; settings: cited from earlier work
Source text: However, this regulatory mechanism is impaired in individuals with type 1 diabetes. Compared to wild-type mice, V1b receptor k ...

MIN6 cells = assay: Insulin secretion from MIN6 cells; assay type: cell-based, mouse; settings: 100 nM, 1 h, 37 °C, 16.8 mM glucose, 2 × 10^4 cells/well; HTRF; 3 technical replicates (Fig. 1F)
Protocol: as §1, §2

C57BL/6J mice [6] = assay: Oral glucose tolerance test (OGTT), blood glucose; assay type: in vivo, mouse; settings: AVP 1 mg/kg i.p., 15 min before 1.5 g/kg oral glucose; 8 mice/group (Fig. 5A, 5B)
Protocol: as §3, §4

isolated mouse islets [7] = assay: Glucagon secretion from isolated mouse islets; assay type: cell-based, mouse (C57BL/6J)
Protocol: Hormone secretion from isolated islets
Islets were isolated from anesthetized male C57BL/6J mice (8 wk old). 1 mg/mL Collagenase P (Roche, #11213873001) solution was injected into the pancreas via the bile duct, and the pancreas was digested at 37 °C for 15 min. The mixture was centrifuged at 800 rpm for 3 min to collect the precipitate, which was then washed three times with HBSS (5.4 mM KCl, 0.3 mM Na2HPO4, 0.4 mM KH2PO4, 4.2 mM NaHCO3, 1.3 mM CaCl2, 0.5 mM MgCl2, 0.6 mM MgSO4, 137 mM NaCl, 5.6 mM D-glucose, pH 7.4). Then, the precipitate was re-suspended in HBSS and filtered through a 70 μm filter to obtain islets. The detached islets were cultured overnight in RPMI 1640 supplemented with 10% fetal bovine serum (FBS). The islets were transferred to 48-well plates and starved with KRBB (118.5 mM NaCl, 2.54 mM CaCl2, 1.19 mM KH2PO4, 4.74 mM KCl, 25 mM NaHCO3, 1.19 mM MgSO4, 10 mM HEPES, pH 7.4) containing 0.5% BSA for 60 min. Subsequently, the islets were incubated with 0.1% dimethyl sulfoxide (DMSO) or compounds for a duration of 2 h at 37 °C in 1 mL KRBB containing 16.8 mM or 2.8 mM glucose. Supernatants were collected, and the insulin concentrations were measured using HTRF Insulin kit (Cisbio, #62INSPEC) and an Envision Plate Reader (PerkinElmer).

αTC1-9 cells = assay: Glucagon secretion from αTC1-9 cells; assay type: cell-based, mouse; settings: 100 nM, 1 h, 16.8 mM glucose, 5 × 10^4 cells/well; HTRF; 3 technical replicates (Fig. 3F)
Protocol: as §1, §2

isolated mouse islets [8] = assay: Insulin secretion from isolated mouse islets; assay type: cell-based, mouse (C57BL/6J); settings: for insulin secretion from isolated islets: 2 h

Substance: Arginine vasopressin (CYFQNCPRG-NH2; disulfide 1-6; ends not checked; UniProt P01185 20-28, looked up) [AVP, neuropeptide composed of nine amino acids]
- glucagon secretion from co-culture [1]: induce secretion of glucagon and insulin in high-glucose condition
- plasma insulin in OGTT (C57BL/6J mice [2]): significantly stimulated the release of insulin
- insulin secretion from co-culture ([3]; 100 nM, 16.8 mM glucose, both 2.5 × 10^4 cells/well (Fig. 3H)): induce secretion of glucagon and insulin in high-glucose condition
- AVP-induced insulin secretion from co-culture after Gcgr knockdown ([3]; INS-1E infected with shRNA-Gcgr, AVP (1 nM), 16.8 mM glucose (Fig. 4K)): no significant effect
- AVP-induced insulin secretion from co-culture after Glp1r knockdown ([3]; INS-1E infected with shRNA-Glp1r, AVP (1 nM), 16.8 mM glucose (Fig. 4L)): significantly attenuated AVP-induced insulin secretion
- insulin secretion [4]: enhance insulin secretion
- protection of islet β cells (islet β cells): confer protection on islet β cells against cytokine-induced apoptosis
- insulin secretion from INS-1E cells (INS-1E cells): failed to induce insulin release; also recorded: could not directly induce insulin secretion from INS-1E cells
- glucagon secretion [5]: stimulate glucagon secretion
- insulin secretion from MIN6 cells (MIN6 cells): failed to induce insulin release
- blood glucose levels during OGTT (C57BL/6J mice [6]): significantly lowered blood glucose levels during the OGTT
- glucagon secretion from isolated islets, glucose dependence (isolated mouse islets [7]; AVP (100 nM), low (2.8 mM) and high (16.8 mM) glucose (Fig. 3C)): induced glucagon secretion from the isolated islets in low- and high-glucose conditions
- glucagon secretion from isolated islets (isolated mouse islets [7]; various concentrations of AVP, 2 h, 16.8 mM glucose, 10 islets/well, 3 technical replicates (Fig. 3A)): induced dose-dependent secretion of glucagon
- glucagon secretion from αTC1-9 cells (αTC1-9 cells): could induce glucagon release from αTC1-9 cells
- insulin secretion from isolated islets (isolated mouse islets [8]; 100 nM, AVP compared with GLP-1, 3 technical replicates (Fig. 1D)): stimulated similar level of glucose-dependent insulin secretion from freshly isolated islets as GLP-1
- insulin secretion from isolated islets, glucose dependence (isolated mouse islets [8]; 100 nM, low (2.8 mM) and high (16.8 mM) glucose (Fig. 3D, 3E)): only induced insulin secretion from the islets in high-glucose medium
- insulin secretion from isolated islets (isolated mouse islets [8]; various concentrations of AVP, 37 °C, 10 islets/well, 16.8 mM glucose KRBB, HTRF, mean ± SEM, 3 technical replicates (Fig. 1A)): induced insulin secretion in a dose-dependent manner in high glucose condition
